Experimental findings from patent US10045983B2, “Heteroaryl pyridone and aza-pyrodine compounds” (Genentech, Inc., priority 2011, dated 2018) are described below.

In general, IC70 refers to the concentration needed for an effect of 70%.

The nature of this assay: CD69 Whole Blood Assay (CD69 Hu Blood FACS). As to conditions: Lymphocyte; human whole blood, anti-IgM activated B lymphocytes, FACS; IC70; Table 2 (unit inferred); read-out: CD69 Hu Blood FACS (IC70). Format: cell-based, human. The procedure, abridged:
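Compounds tested for blocking B-cell CD69 induction by flow cytometry in human whole blood, with activation via anti-human IgM goat F(ab′)2 crosslinking of surface IgM.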
For `Cn1cc(-c2ccnc(N3CCn4c(cc5c4CC(C)(C)C5)C3=O)c2CO)cc(Nc2ccc(C(F)(F)F)nn2)c1=O` [Example 301, 3-[3-(hydroxymethyl)-4-[1-methyl-6-oxo-5-[[6-(trifluoromethyl)pyridazin-3-yl]amino]-3-pyridyl]-2-pyridyl]-7,7-dimethyl-1,2,6,8-tetrahydrocyclopenta[3,4]pyrrolo[3,5-b]pyrazin-4-one], the IC70 is 1300 nM.
The result for `CN(Cc1cc(Nc2cc(-c3ccnc(N4CCn5c(cc6c5CC(C)(C)C6)C4=O)c3CO)cn(C)c2=O)nn1C)C1COC1` [Example 302, 3-[3-(hydroxymethyl)-4-[1-methyl-5-[[1-methyl-5-[[methyl(oxetan-3-yl)amino]methyl]pyrazol-3-yl]amino]-6-oxo-3-pyridyl]-2-pyridyl]-7,7-dimethyl-1,2,6,8-tetrahydrocyclopenta[3,4]pyrrolo[3,5-b]pyrazin-4-one] reads 22.8 nM.
For the compound `COCCN1CCn2nc(Nc3cc(-c4ccnc(-n5ncc6c7c(sc6c5=O)CC(C)(C)C7)c4CO)cn(C)c3=O)cc2C1` [Example 304, 3-[3-(hydroxymethyl)-4-[5-[[5-(2-methoxyethyl)-6,7-dihydro-4H-pyrazolo[1,5-a]pyrazin-2-yl]amino]-1-methyl-6-oxo-3-pyridyl]-2-pyridyl]-7,7-dimethyl-6,8-dihydrocyclopenta[3,4]thieno[1,3-d]pyridazin-4-one], the IC70 was 40 nM.
For the compound `COCCN1CCn2nc(Nc3cc(-c4ccnc(N5CCn6c(cc7c6CC(C)(C)C7)C5=O)c4CO)nn(C)c3=O)cc2C1` [Example 305, 3-[3-(hydroxymethyl)-4-[5-[[5-(2-methoxyethyl)-6,7-dihydro-4H-pyrazolo[1,5-a]pyrazin-2-yl]amino]-1-methyl-6-oxo-pyridazin-3-yl]-2-pyridyl]-7,7-dimethyl-1,2,6,8-tetrahydrocyclopenta[3,4]pyrrolo[3,5-b]pyrazin-4-one], the IC70 was 83.2 nM.
The result for `COc1ccc(Nc2cc(-c3ccnc(N4CCn5c(cc6c5CC(C)(C)C6)C4=O)c3CO)cn(C)c2=O)nn1` [Example 306, 3-[3-(hydroxymethyl)-4-[5-[(6-methoxypyridazin-3-yl)amino]-1-methyl-6-oxo-3-pyridyl]-2-pyridyl]-7,7-dimethyl-1,2,6,8-tetrahydrocyclopenta[3,4]pyrrolo[3,5-b]pyrazin-4-one] reads 602 nM.
For `COCCN1CCn2nc(Nc3cc(-c4ccnc(N5CCc6c(sc7c6CC(C)(C)C7)C5=O)c4CO)cn(C)c3=O)cc2C1` [Example 308, 3-[3-(hydroxymethyl)-4-[5-[[5-(2-methoxyethyl)-6,7-dihydro-4H-pyrazolo[1,5-a]pyrazin-2-yl]amino]-1-methyl-6-oxo-3-pyridyl]-2-pyridyl]-7,7-dimethyl-1,2,6,8-tetrahydrocyclopenta[3,4]thieno[1,3-c]pyridin-4-one], the IC70 turned out to be 54.6 nM.
For `COCCCN1CCn2nc(Nc3cc(-c4ccnc(N5CCn6c(cc7c6CC(C)(C)C7)C5=O)c4CO)cn(C)c3=O)cc2C1` [Example 309, 3-[3-(hydroxymethyl)-4-[5-[[5-(3-methoxypropyl)-6,7-dihydro-4H-pyrazolo[1,5-a]pyrazin-2-yl]amino]-1-methyl-6-oxo-3-pyridyl]-2-pyridyl]-7,7-dimethyl-1,2,6,8-tetrahydrocyclopenta[3,4]pyrrolo[3,5-b]pyrazin-4-one], the IC70 was 39.8 nM.
As for `Cc1cc(Nc2cc(-c3ccnc(N4CCn5c(cc6c5CC(C)(C)C6)C4=O)c3CO)cn(C)c2=O)ns1` [Example 310, 3-[3-(hydroxymethyl)-4-[1-methyl-5-[(5-methylisothiazol-3-yl)amino]-6-oxo-3-pyridyl]-2-pyridyl]-7,7-dimethyl-1,2,6,8-tetrahydrocyclopenta[3,4]pyrrolo[3,5-b]pyrazin-4-one], the figure is 119 nM; as for `Cn1cc(-c2ccnc(N3CCn4c(cc5c4CC(C)(C)C5)C3=O)c2CO)cc(Nc2cc(C3CC3)on2)c1=O` [Example 311, 3-[4-[5-[(5-cyclopropylisoxazol-3-yl)amino]-1-methyl-6-oxo-3-pyridyl]-3-(hydroxymethyl)-2-pyridyl]-7,7-dimethyl-1,2,6,8-tetrahydrocyclopenta[3,4]pyrrolo[3,5-b]pyrazin-4-one], 158 nM.
For `Cc1cc(Nc2cc(-c3ccnc(N4CCn5c(cc6c5CC(C)(C)C6)C4=O)c3CO)cn(C)c2=O)nn1C1COC1` [Example 312, 3-[3-(hydroxymethyl)-4-[1-methyl-5-[[5-methyl-1-(oxetan-3-yl)pyrazol-3-yl]amino]-6-oxo-3-pyridyl]-2-pyridyl]-7,7-dimethyl-1,2,6,8-tetrahydrocyclopenta[3,4]pyrrolo[3,5-b]pyrazin-4-one], the IC70 came to 5600 nM.
The result for `CN1Cc2cc(Nc3cc(-c4ccnc(N5CCn6c(cc7c6CC(C)(C)C7)C5=O)c4CO)cn(C)c3=O)nn2CC1=O` [Example 313, 3-[3-(hydroxymethyl)-4-[1-methyl-5-[(5-methyl-6-oxo-4,7-dihydropyrazolo[1,5-a]pyrazin-2-yl)amino]-6-oxo-3-pyridyl]-2-pyridyl]-7,7-dimethyl-1,2,6,8-tetrahydrocyclopenta[3,4]pyrrolo[3,5-b]pyrazin-4-one] reads 19.1 nM; that for `Cn1cc(-c2ccnc(N3CCn4c(cc5c4CC(C)(C)C5)C3=O)c2CO)cc(Nc2ccc(N3CC(O)C3)cn2)c1=O` [Example 314, 3-[4-[5-[[5-(3-hydroxyazetidin-1-yl)-2-pyridyl]amino]-1-methyl-6-oxo-3-pyridyl]-3-(hydroxymethyl)-2-pyridyl]-7,7-dimethyl-1,2,6,8-tetrahydrocyclopenta[3,4]pyrrolo[3,5-b]pyrazin-4-one], 44.6 nM; that for `Cn1nc(Nc2cc(-c3ccnc(N4CCn5c(cc6c5CC(C)(C)C6)C4=O)c3CO)cn(C)c2=O)cc1C(=O)N1CCCC1` [Example 315, 3-[3-(hydroxymethyl)-4-[1-methyl-5-[[1-methyl-5-(pyrrolidine-1-carbonyl)pyrazol-3-yl]amino]-6-oxo-3-pyridyl]-2-pyridyl]-7,7-dimethyl-1,2,6,8-tetrahydrocyclopenta[3,4]pyrrolo[3,5-b]pyrazin-4-one], 15 nM.
As for `COCc1cc(Nc2cc(-c3ccnc(N4CCn5c(cc6c5CC(C)(C)C6)C4=O)c3CO)cn(C)c2=O)nn1C` [Example 316, 3-[3-(hydroxymethyl)-4-[5-[[5-(methoxymethyl)-1-methyl-pyrazol-3-yl]amino]-1-methyl-6-oxo-3-pyridyl]-2-pyridyl]-7,7-dimethyl-1,2,6,8-tetrahydrocyclopenta[3,4]pyrrolo[3,5-b]pyrazin-4-one], the figure is 20.2 nM.
Take `CN1Cc2cc(Nc3cc(-c4ccnc(N5CCc6c(sc7c6CC(C)(C)C7)C5=O)c4CO)cn(C)c3=O)nn2CC1=O` [Example 317, 3-[3-(hydroxymethyl)-4-[1-methyl-5-[(5-methyl-6-oxo-4,7-dihydropyrazolo[1,5-a]pyrazin-2-yl)amino]-6-oxo-3-pyridyl]-2-pyridyl]-7,7-dimethyl-1,2,6,8-tetrahydrocyclopenta[3,4]thieno[1,3-c]pyridin-4-one]: the IC70 came to 58.6 nM.
The result for `C[C@@H]1c2cc(Nc3cc(-c4ccnc(N5CCn6c(cc7c6CC(C)(C)C7)C5=O)c4CO)cn(C)c3=O)nn2CCN1C` [Example 318, (R)-2-(5-((4,5-dimethyl-4,5,6,7-tetrahydropyrazolo[1,5-a]pyrazin-2-yl)amino)-3′-(hydroxymethyl)-1-methyl-6-oxo-1,6-dihydro-[3,4′-bipyridin]-2′-yl)-7,7-dimethyl-2,3,4,6,7,8-hexahydro-1H-cyclopenta[4,5]pyrrolo[1,2-a]pyrazin-1-one] reads 108 nM.
